PMC7180948, “New Insights into 4-Anilinoquinazolines as Inhibitors of Cardiac Troponin I–Interacting Kinase (TNNi3K)” (Molecules, 2020)

Columns and labels:
Experiment in all cases: biochemical
Set-up in all cases: KINOMEscan competition binding panel (Eurofins DiscoverX), single concentration, percent inhibition
Details in all cases: read-out: 15 at 1 µM % inhibition
STK36 = STK36 (Homo sapiens, UniProt Q9NRP7)
In short: (§1)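 Values come from single-concentration (1 µM) profiling in the Eurofins DiscoverX KINOMEscan competition-binding platform, which covers over 400 kinases.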

HPK1 = target: T1, HPK1 (Homo sapiens, UniProt Q92918)
T1 construct: gene MAP4K1
In short: as §1

AMPK-alpha1 = target: T2, AMPK-alpha1 (Homo sapiens, UniProt Q13131)
T2 construct: gene PRKAA1
In short: as §1

HIPK1 = HIPK1 (Homo sapiens, UniProt Q86Z02)
In short: as §1

MARK1 = MARK1 (Homo sapiens, UniProt Q9P0L2)
MARK1, sequence (Q9P0L2 whole entry): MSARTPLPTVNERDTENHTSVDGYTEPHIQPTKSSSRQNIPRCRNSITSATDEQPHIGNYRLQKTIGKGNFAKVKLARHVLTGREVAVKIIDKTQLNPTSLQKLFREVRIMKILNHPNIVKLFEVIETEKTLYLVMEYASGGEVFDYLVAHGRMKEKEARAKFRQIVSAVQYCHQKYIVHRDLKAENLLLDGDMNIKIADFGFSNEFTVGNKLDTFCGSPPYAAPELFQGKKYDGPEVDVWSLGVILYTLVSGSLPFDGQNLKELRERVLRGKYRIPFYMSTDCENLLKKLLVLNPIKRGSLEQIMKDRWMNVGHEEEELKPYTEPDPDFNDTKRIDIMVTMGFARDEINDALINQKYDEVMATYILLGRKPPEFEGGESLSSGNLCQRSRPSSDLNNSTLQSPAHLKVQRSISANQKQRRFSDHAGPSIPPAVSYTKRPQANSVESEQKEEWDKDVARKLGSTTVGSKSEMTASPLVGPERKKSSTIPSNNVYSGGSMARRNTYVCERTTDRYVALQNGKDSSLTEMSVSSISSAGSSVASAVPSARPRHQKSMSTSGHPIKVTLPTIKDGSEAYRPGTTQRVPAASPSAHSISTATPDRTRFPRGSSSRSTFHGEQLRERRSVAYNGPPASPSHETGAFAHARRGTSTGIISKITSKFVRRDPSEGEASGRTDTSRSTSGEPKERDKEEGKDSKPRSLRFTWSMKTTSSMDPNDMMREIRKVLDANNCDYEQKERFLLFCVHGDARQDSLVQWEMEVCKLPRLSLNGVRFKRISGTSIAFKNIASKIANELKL
In short: as §1

LCK = LCK (Homo sapiens, UniProt P06239)
LCK, sequence (P06239 whole entry): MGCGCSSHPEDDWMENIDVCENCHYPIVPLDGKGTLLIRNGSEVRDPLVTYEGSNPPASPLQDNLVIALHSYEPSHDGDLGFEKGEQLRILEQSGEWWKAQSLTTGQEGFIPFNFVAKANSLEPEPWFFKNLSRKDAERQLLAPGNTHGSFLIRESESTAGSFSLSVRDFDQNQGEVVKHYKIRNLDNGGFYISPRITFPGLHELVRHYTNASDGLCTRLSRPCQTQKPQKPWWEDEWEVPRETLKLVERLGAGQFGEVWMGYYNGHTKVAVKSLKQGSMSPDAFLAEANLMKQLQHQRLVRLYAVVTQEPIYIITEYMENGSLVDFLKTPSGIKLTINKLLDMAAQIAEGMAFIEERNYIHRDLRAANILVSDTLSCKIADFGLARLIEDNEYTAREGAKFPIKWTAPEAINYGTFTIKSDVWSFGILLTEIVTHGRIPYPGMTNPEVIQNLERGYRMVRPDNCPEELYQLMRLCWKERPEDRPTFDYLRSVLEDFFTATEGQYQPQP
In short: as §1

FLT3(ITD) = FLT3(ITD) (Homo sapiens, UniProt P36888, ITD)
In short: as §1

KIT = KIT (Homo sapiens, UniProt P10721)
KIT, sequence (P10721 whole entry): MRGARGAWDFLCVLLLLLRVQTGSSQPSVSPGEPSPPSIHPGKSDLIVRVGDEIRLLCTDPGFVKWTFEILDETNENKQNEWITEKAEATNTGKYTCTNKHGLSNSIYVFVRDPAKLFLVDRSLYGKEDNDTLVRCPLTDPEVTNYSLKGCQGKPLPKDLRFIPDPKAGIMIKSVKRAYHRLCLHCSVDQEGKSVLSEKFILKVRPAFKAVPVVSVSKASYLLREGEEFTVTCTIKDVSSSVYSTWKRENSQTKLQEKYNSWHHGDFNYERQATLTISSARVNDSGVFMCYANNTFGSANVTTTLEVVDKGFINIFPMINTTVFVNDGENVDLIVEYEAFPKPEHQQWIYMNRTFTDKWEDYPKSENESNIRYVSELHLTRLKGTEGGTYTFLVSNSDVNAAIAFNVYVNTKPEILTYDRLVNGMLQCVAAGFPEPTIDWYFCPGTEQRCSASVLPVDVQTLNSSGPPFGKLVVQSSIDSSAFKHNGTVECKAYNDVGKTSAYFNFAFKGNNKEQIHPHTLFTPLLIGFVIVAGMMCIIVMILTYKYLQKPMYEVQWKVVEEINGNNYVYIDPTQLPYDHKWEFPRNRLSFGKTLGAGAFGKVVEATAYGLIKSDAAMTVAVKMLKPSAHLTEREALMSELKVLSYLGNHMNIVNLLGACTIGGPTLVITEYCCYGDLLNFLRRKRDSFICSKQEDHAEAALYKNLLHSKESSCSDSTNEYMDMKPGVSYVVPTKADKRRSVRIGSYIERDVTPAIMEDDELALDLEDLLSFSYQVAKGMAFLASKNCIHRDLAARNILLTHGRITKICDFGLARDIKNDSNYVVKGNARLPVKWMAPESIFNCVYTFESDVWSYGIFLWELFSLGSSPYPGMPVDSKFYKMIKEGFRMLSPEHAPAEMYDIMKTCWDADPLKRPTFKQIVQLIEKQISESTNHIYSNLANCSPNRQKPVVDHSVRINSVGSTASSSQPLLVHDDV
In short: as §1

TESK1 = TESK1 (Homo sapiens, UniProt Q15569)
In short: as §1

ROCK2 = ROCK2 (Homo sapiens, UniProt O75116)
In short: as §1

FGFR3(G697C) = FGFR3(G697C) (Homo sapiens, UniProt P22607, G697C)
In short: as §1

ACVR2B = ACVR2B (Homo sapiens, UniProt Q13705)
In short: as §1

ERK3 = target: T3, ERK3 (Homo sapiens, UniProt Q16659)
T3 construct: gene MAPK6
T3 sequence (Q16659 whole entry): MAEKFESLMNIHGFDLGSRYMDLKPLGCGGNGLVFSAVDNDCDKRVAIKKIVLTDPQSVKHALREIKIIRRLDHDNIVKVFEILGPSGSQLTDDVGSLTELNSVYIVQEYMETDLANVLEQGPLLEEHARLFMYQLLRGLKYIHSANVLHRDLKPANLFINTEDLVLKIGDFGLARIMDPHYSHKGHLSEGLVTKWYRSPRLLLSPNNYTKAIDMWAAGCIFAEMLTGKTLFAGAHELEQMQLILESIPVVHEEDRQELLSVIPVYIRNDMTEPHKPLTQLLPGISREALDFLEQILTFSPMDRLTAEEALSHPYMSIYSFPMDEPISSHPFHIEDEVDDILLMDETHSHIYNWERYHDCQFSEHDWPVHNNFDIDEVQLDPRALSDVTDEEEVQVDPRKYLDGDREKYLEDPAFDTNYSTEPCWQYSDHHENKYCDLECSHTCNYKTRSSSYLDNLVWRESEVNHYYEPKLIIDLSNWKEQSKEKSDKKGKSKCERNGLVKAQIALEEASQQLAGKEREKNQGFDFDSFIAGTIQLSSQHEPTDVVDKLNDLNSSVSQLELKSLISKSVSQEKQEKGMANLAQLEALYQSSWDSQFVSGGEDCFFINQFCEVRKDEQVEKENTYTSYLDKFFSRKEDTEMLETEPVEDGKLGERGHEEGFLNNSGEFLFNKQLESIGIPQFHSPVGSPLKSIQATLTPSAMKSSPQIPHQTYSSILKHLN
In short: as §1

RIPK1 = RIPK1 (Homo sapiens, UniProt Q13546)
In short: as §1

PFTK1 = target: T4, PFTK1 (Homo sapiens, UniProt O94921)
T4 construct: gene CDK14
In short: as §1

[1] = target: T5, ABL1(F317I)-phosphorylated (Homo sapiens, UniProt P00519, F317I)
T5 construct: phosphorylated
In short: as §1

CDK5 = CDK5 (Homo sapiens, UniProt Q00535)
CDK5, sequence (Q00535 whole entry): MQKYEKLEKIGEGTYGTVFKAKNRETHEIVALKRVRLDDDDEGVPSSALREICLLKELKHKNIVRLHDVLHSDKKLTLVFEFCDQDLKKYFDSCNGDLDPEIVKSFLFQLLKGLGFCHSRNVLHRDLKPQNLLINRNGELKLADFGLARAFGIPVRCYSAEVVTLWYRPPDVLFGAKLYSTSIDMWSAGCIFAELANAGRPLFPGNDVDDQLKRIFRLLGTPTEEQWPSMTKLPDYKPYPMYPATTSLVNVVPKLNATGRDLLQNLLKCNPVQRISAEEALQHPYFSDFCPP
In short: as §1

IKK-alpha = target: T6, IKK-alpha (Homo sapiens, UniProt O15111)
T6 construct: gene CHUK
In short: as §1

AURKC = AURKC (Homo sapiens, UniProt Q9UQB9)
In short: as §1

TGFBR1 = TGFBR1 (Homo sapiens, UniProt P36897)
TGFBR1, sequence (P36897 whole entry): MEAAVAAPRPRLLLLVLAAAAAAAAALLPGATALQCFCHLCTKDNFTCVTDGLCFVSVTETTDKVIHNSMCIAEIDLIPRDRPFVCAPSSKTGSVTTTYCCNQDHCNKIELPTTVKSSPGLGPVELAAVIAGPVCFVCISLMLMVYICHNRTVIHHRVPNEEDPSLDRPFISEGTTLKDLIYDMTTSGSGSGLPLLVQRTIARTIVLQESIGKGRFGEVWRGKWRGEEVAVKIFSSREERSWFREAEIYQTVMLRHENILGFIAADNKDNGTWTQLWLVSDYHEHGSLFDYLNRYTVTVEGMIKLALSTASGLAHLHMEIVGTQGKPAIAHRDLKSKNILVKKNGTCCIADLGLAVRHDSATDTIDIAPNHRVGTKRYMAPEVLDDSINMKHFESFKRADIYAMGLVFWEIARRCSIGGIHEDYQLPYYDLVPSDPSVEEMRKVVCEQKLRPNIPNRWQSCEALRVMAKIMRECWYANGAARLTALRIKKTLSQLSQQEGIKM
In short: as §1

NEK10 = NEK10 (Homo sapiens, UniProt Q6ZWH5)
NEK10, sequence (Q6ZWH5 whole entry): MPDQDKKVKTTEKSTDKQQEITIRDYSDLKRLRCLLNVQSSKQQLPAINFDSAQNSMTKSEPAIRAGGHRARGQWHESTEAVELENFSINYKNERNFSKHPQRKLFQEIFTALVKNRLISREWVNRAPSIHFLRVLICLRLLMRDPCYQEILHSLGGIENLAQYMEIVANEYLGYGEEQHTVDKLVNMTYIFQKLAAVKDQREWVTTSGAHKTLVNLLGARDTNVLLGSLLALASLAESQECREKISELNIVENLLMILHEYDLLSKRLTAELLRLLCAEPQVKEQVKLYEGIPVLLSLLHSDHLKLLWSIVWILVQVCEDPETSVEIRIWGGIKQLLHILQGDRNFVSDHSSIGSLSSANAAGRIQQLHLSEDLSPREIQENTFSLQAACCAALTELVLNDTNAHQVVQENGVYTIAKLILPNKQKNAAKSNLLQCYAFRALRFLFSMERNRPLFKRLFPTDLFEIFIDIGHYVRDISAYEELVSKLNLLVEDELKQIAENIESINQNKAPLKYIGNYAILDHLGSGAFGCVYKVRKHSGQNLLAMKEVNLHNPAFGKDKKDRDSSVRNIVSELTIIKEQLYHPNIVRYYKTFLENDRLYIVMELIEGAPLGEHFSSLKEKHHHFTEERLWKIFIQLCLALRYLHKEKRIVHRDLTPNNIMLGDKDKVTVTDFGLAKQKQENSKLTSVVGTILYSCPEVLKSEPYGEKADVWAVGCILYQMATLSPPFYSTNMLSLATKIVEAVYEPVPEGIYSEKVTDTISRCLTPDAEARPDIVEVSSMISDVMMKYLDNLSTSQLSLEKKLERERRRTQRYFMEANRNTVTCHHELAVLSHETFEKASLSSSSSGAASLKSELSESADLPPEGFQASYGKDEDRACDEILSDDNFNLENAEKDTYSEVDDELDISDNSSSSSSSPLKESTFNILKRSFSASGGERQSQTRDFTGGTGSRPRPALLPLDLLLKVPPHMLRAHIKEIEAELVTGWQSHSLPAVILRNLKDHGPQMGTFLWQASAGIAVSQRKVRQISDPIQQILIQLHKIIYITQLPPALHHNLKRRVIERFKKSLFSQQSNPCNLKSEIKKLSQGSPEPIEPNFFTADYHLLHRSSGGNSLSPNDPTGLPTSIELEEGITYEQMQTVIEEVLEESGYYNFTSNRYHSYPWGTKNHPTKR
In short: as §1

PIK3CA(E542K) = PIK3CA(E542K) (Homo sapiens, UniProt P42336, E542K)
In short: as §1

FGFR3 = FGFR3 (Homo sapiens, UniProt P22607)
In short: as §1

BIKE = target: T7, BIKE (Homo sapiens, UniProt Q9NSY1)
T7 construct: gene BMP2K
In short: as §1

- inhibition at 1 µM (STK36): 0%
- inhibition at 1 µM (HPK1): 0%
- inhibition at 1 µM (AMPK-alpha1): 1%
- inhibition at 1 µM (HIPK1): 7%
- inhibition at 1 µM (MARK1): 0%
- inhibition at 1 µM (LCK): 0%
- inhibition at 1 µM (FLT3(ITD)): 0%
- inhibition at 1 µM (KIT): 10%
- inhibition at 1 µM (TESK1): 1%
- inhibition at 1 µM (ROCK2): 5%
- inhibition at 1 µM (FGFR3(G697C)): 0%
- inhibition at 1 µM (ACVR2B): 0%
- inhibition at 1 µM (ERK3): 18%
- inhibition at 1 µM (RIPK1): 37%
- inhibition at 1 µM (PFTK1): 0%
- inhibition at 1 µM [1]: 22%
- inhibition at 1 µM (CDK5): 3%
- inhibition at 1 µM (IKK-alpha): 33%
- inhibition at 1 µM (AURKC): 0%
- inhibition at 1 µM (TGFBR1): 0%
- inhibition at 1 µM (NEK10): 0%
- inhibition at 1 µM (PIK3CA(E542K)): 22%
- inhibition at 1 µM (FGFR3): 1%
- inhibition at 1 µM (BIKE): 0%
Compound: CNS(=O)(=O)c1ccc(N(C)C)c(Nc2nc(C)nc3cc(OC)c(OC)cc23)c1 [compound 15, 3-((6,7-dimethoxy-2-methylquinazolin-4-yl)amino)-4-(dimethylamino)-N-methylbenzenesulfonamide]
